Values quoted from earlier work, collected in patent publication US20070092567A1 (GALEPHAR M/F, priority 2001, published 2007).
“Also recorded” adds a separate entry of the source.

Assays:
[1] = target: cytochrome P450 3A4 (Homo sapiens, UniProt P08684)
[2] = target: cytochrome P450 2C9 isoenzyme (Homo sapiens, UniProt P11712)
[3] = system: cytochrome P450 system
[4] = not given; remark: listed apart in the source

Chain of cytochrome P450 3A4 (P08684 whole entry): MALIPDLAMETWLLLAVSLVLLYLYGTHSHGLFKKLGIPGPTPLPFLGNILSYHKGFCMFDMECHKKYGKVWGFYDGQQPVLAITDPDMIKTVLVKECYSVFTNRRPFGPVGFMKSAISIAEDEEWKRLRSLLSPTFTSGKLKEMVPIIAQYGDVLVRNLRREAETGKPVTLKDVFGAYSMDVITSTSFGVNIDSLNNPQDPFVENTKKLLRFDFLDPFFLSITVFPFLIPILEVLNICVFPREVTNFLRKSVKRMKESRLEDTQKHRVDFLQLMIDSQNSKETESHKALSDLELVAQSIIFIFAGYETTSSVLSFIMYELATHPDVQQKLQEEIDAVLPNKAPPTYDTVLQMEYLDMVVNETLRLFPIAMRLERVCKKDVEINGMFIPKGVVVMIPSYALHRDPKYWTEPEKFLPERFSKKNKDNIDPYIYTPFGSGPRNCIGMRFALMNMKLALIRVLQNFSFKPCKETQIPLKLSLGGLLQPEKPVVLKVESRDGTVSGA
Chain of cytochrome P450 2C9 isoenzyme (P11712 whole entry): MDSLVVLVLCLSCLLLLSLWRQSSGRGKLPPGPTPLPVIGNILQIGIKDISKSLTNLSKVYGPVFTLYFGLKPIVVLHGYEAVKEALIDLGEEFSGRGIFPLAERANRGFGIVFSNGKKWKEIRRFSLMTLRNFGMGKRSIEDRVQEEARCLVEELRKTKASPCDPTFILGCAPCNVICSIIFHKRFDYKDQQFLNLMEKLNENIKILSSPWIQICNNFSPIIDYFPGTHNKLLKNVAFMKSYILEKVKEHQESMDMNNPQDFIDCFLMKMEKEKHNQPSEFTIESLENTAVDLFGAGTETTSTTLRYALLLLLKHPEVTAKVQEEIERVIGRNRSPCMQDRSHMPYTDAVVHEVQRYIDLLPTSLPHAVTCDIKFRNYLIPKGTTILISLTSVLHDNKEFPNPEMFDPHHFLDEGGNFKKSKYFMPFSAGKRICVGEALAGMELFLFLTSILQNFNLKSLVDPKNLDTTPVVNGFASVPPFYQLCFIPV

For CC(C)OC(=O)C(C)(C)Oc1ccc(C(=O)c2ccc(Cl)cc2)cc1 [Fenofibrate, p-(4-chlorobenzoyl)-phenoxy isobutyrate isopropyl ester], the “metabolisation by cytochrome P450 3A4” value [1] is listed as “not metabolised by cytochrome P450 3A4” and the “metabolisation by cytochrome P450 2C9 isoenzyme” value [2] is listed as “only weakly metabolised”.
For CC[C@H](C)C(=O)O[C@H]1C[C@H](O)C=C2C=C[C@H](C)[C@H](CC[C@@H](O)C[C@@H](O)CC(=O)O)[C@H]21 [pravastatin], the average oral absorption (based on urinary recovery of radiolabeled drug) is listed as 34%, the “decrease of systemic bioavailability following a bedtime dose compared to morning administration” value (human, in vivo) is listed as 60% and the “metabolisation through the cytochrome P450 system” value [3] is listed as “not metabolised through the cytochrome P450 system; also recorded: does not involve the cytochrome P450 system”.
For CC(C)(Oc1ccc(C(=O)c2ccc(Cl)cc2)cc1)C(=O)O [fenofibric acid], the mean plasma half-life ([4]; healthy, fasting young adults) is listed as 19.6 to 26.6 h, the “eliminated in the urine as fenofibric acid ester glucuronide” value ([4]; in vivo) is listed as 60-88% and the Peak plasma levels ([4]; single oral dose of 300 mg fenofibrate) is listed as 6 to 9.5 mg/L.
